Experimental data from publication PMC6136390, “Coptisine-induced inhibition of Helicobacter pylori: elucidation of specific mechanisms by probing urease active site and its maturation process” (Journal of Enzyme Inhibition and Medicinal Chemistry, 2018).
Read-outs that look alike come from different tables or passages of the source.

Key:
H. pylori strains [1] = experiment: Minimal inhibitory concentration assay (agar dilution); assay type: cell-based, Helicobacter pylori
From the text: (§1) Fourteen H. pylori strains were used in this study. NCTC 11637 and NCTC 26695 strains were purchased from American Type Culture Collection. Sydney Strain-1 (SS1) was kindly provided by Prof. Richard Ferrero of Monash University, Australia. Clinical isolate ICDC 111001 was provided by Prof. Zhang Jian-zhong of the Chinese Center for Disease Control and Prevention, China. Ten clinical isolates (Hp1868, Hp1869, Hp1870, Hp1871, Hp1872, Hp1873, Hp1874, Hp1875, Hp1876, and Hp1877) were obtained from Renji Hospital, Shanghai Jiaotong University.
(§2) All strains were cultured in Columbia agar base containing 7% sheep blood at 37 °C in a micro-aerophilic environment (5% O2, 10% CO2, and 85% N2). After 3 days, H. pylori was scraped and suspended in phosphate buffered saline (PBS). Turbidimetry was employed to adjust the concentrations of different H. pylori strains (turbidity equivalent to 1.0 McFarland standard). Crude HPU was obtained according to the method described by Matsubara et al.[42]
In this study, different concentrations (12.5, 25, 50, and 100 μg/mL) of berberine, palmatine, epiberberine, jatrorrhizine, and coptisine were used to evaluate antimicrobial activity against the standard H. pylori strain NCTC 11637. The agar dilution method was then used to analyse the antibacterial effects of coptisine against two H. pylori standard strains (SS1 and NCTC 26695) and eleven clinical isolates (ICDC 111001, HP 1868, HP 1869, HP 1870, HP 1871, HP 1872, HP 1873, HP 1874, HP 1875, HP 1876, and HP 1877). In this assay, 100 μL of H. pylori suspension (McFarland = 1.0) was added to the test compound-containing or DMSO-containing (control) Columbia blood agar plate. CLR and MET were used as positive controls in this experiment. Minimum inhibitory concentration (MIC) was defined as the lowest concentration at which no strain growth was observed by visual examination after 3 days. This experiment was repeated twice.

H. pylori strains [2] = experiment: Minimal bactericidal concentration assay (broth dilution); assay type: cell-based, Helicobacter pylori
From the text: as §1, §2
The broth dilution method was used to determine the minimal bactericidal concentrations (MBCs) of coptisine (25, 37.5, 50, 62.5, 75, 100, and 125 μg/mL) against three H. pylori standard strains (SS1, NCTC 11637, and NCTC 26695) and eleven clinical isolates (ICDC 111001, HP 1868, HP 1869, HP 1870, HP 1871 and HP 1872, HP 1873, HP 1874, HP 1875, HP 1876, and HP 1877). In brief, H. pylori suspension (McFarland = 1.0) was exposed to DMSO (control) and coptisine at 2–4 times MIC in BHI with 10% FBS. After shaking at 120 rpm in the tri-gas incubator for 6 h, 100 μL samples were removed and cultured in Columbia blood agar base[43]. MBC was defined as a 99.9% decrease in viability compared with the control. The experiment was repeated twice.

H. pylori urease (HPU) = biological target: T1, H. pylori urease (HPU) (Helicobacter pylori, UniProt P69996); experiment: Urease inhibition assay in vitro (modified Berthelot method); assay type: biochemical
T1 construct: Crude HPU was obtained according to the method described by Matsubara et al; endogenous in cells; host or cells: cultured Helicobacter pylori (strain not specified)
Procedure: as §2
This assay was performed using the modified Berthelot method (phenol-hypochlorite) in 96 well plates. At the beginning of each reaction, different concentrations of urease solution and 150 mM urea as a substrate were mixed in 20 mM HEPES buffer (pH 7.5) at 37 °C. After a 20-min reaction, urease activity was tested by measuring the concentration of ammonia produced by the reaction at 595 nm using the microplate reader (Thermo Fisher Multiskan FC, Instruments, Inc., USA) at ambient temperature. […] One unit (U) of urease activity was defined as the amount of urease required to catalyse 1 μmol urea per min. […]
Coptisine’s ability to inhibit urease activity was determined by measuring amounts of ammonia produced using the modified Berthelot method described above. […] Residual activity (RA %) for each assay was calculated using the following equation: RA % = (activity with inhibitors/activity without inhibitors) × 100%. […]

[3] = clinical isolate HP 1869 (MET resistance), pH = 7.2
[4] = clinical isolate HP 1870 (CLR and MET resistance), pH = 7.2
[5] = clinical isolate HP 1871 (MET resistance), pH = 7.2
[6] = clinical isolate HP 1876 (CLR and MET resistance), pH = 7.2

T1 sequence (P69996 whole entry): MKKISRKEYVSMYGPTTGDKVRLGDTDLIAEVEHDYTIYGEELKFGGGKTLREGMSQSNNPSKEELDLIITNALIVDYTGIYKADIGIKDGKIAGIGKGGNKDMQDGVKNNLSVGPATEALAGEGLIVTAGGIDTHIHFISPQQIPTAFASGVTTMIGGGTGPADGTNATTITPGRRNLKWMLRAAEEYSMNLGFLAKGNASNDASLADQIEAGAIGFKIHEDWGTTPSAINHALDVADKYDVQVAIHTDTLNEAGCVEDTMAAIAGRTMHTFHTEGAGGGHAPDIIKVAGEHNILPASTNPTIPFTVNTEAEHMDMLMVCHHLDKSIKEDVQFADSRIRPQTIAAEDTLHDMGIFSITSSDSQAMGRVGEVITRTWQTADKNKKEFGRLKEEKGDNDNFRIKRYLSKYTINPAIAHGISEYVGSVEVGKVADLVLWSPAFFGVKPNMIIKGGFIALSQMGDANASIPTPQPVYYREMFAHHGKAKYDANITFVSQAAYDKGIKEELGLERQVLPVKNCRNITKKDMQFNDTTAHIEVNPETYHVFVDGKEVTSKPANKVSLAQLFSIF
T1 sequence (P14916 whole entry, further chain): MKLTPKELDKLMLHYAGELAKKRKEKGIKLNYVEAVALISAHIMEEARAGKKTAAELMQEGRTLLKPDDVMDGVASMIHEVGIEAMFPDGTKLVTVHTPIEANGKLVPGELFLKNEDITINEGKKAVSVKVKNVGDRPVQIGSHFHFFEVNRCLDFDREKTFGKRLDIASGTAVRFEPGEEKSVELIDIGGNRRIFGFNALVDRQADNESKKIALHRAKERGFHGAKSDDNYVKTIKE

`c1c2c(cc3c1OCO3)-c1cc3ccc4c(c3c[n+]1CC2)OCO4` [Coptisine] was tested, and the MIC (H. pylori strains [1]; Helicobacter pylori, NCTC11637, pH 7.2, standard strain NCTC 11637, pH 7.2) was 25 µg/mL, the MIC (H. pylori strains [1]; Helicobacter pylori, NCTC26695, strain NCTC 26695, pH = 7.2) was 25 µg/mL and the MIC (H. pylori strains [1]; Helicobacter pylori, clinical isolate HP 1868, pH = 7.2) was 50 µg/mL. For the same compound, the MIC (H. pylori strains [1]; Helicobacter pylori, clinical isolate HP 1869 (MET resistance), pH = 7.2) was 50 µg/mL, the MIC (H. pylori strains [1]; Helicobacter pylori, clinical isolate HP 1870 (CLR and MET resistance), pH = 7.2) was 25 µg/mL and the MIC (H. pylori strains [1]; Helicobacter pylori, clinical isolate HP 1871 (MET resistance), pH = 7.2) was 25 µg/mL. It also gave an MIC (H. pylori strains [1]; Helicobacter pylori, clinical isolate HP 1872, pH = 7.2) of 25 µg/mL, an MIC (H. pylori strains [1]; Helicobacter pylori, clinical isolate HP 1873, pH = 7.2) of 50 µg/mL and an MIC (H. pylori strains [1]; Helicobacter pylori, clinical isolate HP 1874, pH = 7.2) of 50 µg/mL. For the same compound, the MIC (H. pylori strains [1]; Helicobacter pylori, clinical isolate HP 1875, pH = 7.2) was 50 µg/mL, the MIC (H. pylori strains [1]; Helicobacter pylori, clinical isolate HP 1876 (CLR and MET resistance), pH = 7.2) was 50 µg/mL and the MIC (H. pylori strains [1]; Helicobacter pylori, clinical isolate HP 1877, pH = 7.2) was 50 µg/mL. The MIC (H. pylori strains [1]; Helicobacter pylori, clinical isolate ICDC 111001, pH = 7.2) was 25 µg/mL, the MIC (H. pylori strains [1]; Helicobacter pylori, read-out: MICs against eleven clinical isolates, eleven clinical isolates from three sites in China) was 25 to 50 µg/mL and the MIC (H. pylori strains [1]; Helicobacter pylori, strain SS1, pH = 7.2) was 25 µg/mL. The MIC (H. pylori strains [1]; [3]) was 50 µg/mL, the MIC (H. pylori strains [1]; [4]) was 25 µg/mL and the MIC (H. pylori strains [1]; [5]) was 25 µg/mL. For the same compound, the MIC (H. pylori strains [1]; [6]) was 50 µg/mL, the MIC (H. pylori strains [1]; standard strain NCTC 11637, pH 7.2) was 25 µg/mL and the MIC (H. pylori strains [1]; strain NCTC 26695, pH = 7.2) was 25 µg/mL. It also gave an MIC (H. pylori strains [1]; strain SS1, pH = 7.2) of 25 µg/mL, an MBC (H. pylori strains [2]; Helicobacter pylori, NCTC11637, strain NCTC 11637, pH = 7.2, read-out: MBC) of 62.5 µg/mL and an MBC (H. pylori strains [2]; Helicobacter pylori, NCTC26695, strain NCTC 26695, pH = 7.2, read-out: MBC) of 37.5 µg/mL. The MBC (H. pylori strains [2]; Helicobacter pylori, clinical isolate HP 1868, pH = 7.2, read-out: MBC) was 62.5 µg/mL, the MBC (H. pylori strains [2]; Helicobacter pylori, clinical isolate HP 1869 (MET resistance), pH = 7.2, read-out: MBC) was 62.5 µg/mL and the MBC (H. pylori strains [2]; Helicobacter pylori, clinical isolate HP 1870 (CLR and MET resistance), pH = 7.2, read-out: MBC) was 37.5 µg/mL. It also gave an MBC (H. pylori strains [2]; Helicobacter pylori, clinical isolate HP 1871 (MET resistance), pH = 7.2, read-out: MBC) of 37.5 µg/mL, an MBC (H. pylori strains [2]; Helicobacter pylori, clinical isolate HP 1872, pH = 7.2, read-out: MBC) of 37.5 µg/mL and an MBC (H. pylori strains [2]; Helicobacter pylori, clinical isolate HP 1873, pH = 7.2, read-out: MBC) of 75 µg/mL. The MBC (H. pylori strains [2]; Helicobacter pylori, clinical isolate HP 1874, pH = 7.2, read-out: MBC) was 100 µg/mL, the MBC (H. pylori strains [2]; Helicobacter pylori, clinical isolate HP 1875, pH = 7.2, read-out: MBC) was 75 µg/mL and the MBC (H. pylori strains [2]; Helicobacter pylori, clinical isolate HP 1876 (CLR and MET resistance), pH = 7.2, read-out: MBC) was 75 µg/mL. For the same compound, the MBC (H. pylori strains [2]; Helicobacter pylori, clinical isolate HP 1877, pH = 7.2, read-out: MBC) was 125 µg/mL, the MBC (H. pylori strains [2]; Helicobacter pylori, clinical isolate ICDC 111001, pH = 7.2, read-out: MBC) was 50 µg/mL and the MBC (H. pylori strains [2]; Helicobacter pylori, strain SS1, pH = 7.2, read-out: MBC) was 37.5 µg/mL. The MBC/MIC (H. pylori strains [2]; clinical isolate HP 1868) was 1.25, the MBC/MIC (H. pylori strains [2]; clinical isolate HP 1869) was 1.25 and the MBC (H. pylori strains [2]; [3]) was 62.5 µg/mL. For the same compound, the MBC/MIC (H. pylori strains [2]; clinical isolate HP 1870) was 1.5, the MBC (H. pylori strains [2]; [4]) was 37.5 µg/mL and the MBC/MIC (H. pylori strains [2]; clinical isolate HP 1871) was 1.5. For the same compound, the MBC (H. pylori strains [2]; [5]) was 37.5 µg/mL, the MBC/MIC (H. pylori strains [2]; clinical isolate HP 1872) was 1.5 and the MBC/MIC (H. pylori strains [2]; clinical isolate HP 1873) was 1.5. For the same compound, the MBC/MIC (H. pylori strains [2]; clinical isolate HP 1874) was 2, the MBC/MIC (H. pylori strains [2]; clinical isolate HP 1875) was 1.5 and the MBC/MIC (H. pylori strains [2]; clinical isolate HP 1876) was 1.5. For the same compound, the MBC (H. pylori strains [2]; [6]) was 75 µg/mL, the MBC/MIC (H. pylori strains [2]; clinical isolate HP 1877) was 2.5 and the MBC/MIC (H. pylori strains [2]; clinical isolate ICDC 111001) was 2. For the same compound, the MBC/MIC (H. pylori strains [2]; strain NCTC 11637) was 2.5, the MBC/MIC (H. pylori strains [2]; strain NCTC 26695) was 1.5 and the MBC/MIC (H. pylori strains [2]; strain SS1) was 1.5. The IC50 (H. pylori urease (HPU)) was 1780 ± 60 µM.
